Patent publication US3954893A, “New halogenated cyclobutanes” (W. R. Grace & Co., priority 1975, dated 1976)

Assays:
[1] = review of the art; cited from earlier work
air-breathing mammals = assay: Inhalation anesthetic properties of the compounds; assay type: in vivo; settings: for Convulsions and death: administered in concentrations within the useful range; for Inhalation anesthetic properties: in vivo
Experimental: (§1) In this test, mice were exposed to the compounds for a period of 10 minutes in a rotating drum. Observations were then made of the pinch reflex, the corneal reflex and the return of the righting reflex. At least four graded doses were employed to determine the minimum concentration required to anesthetize 50% of the mice used (AC50) and the minimum concentration required to kill 50% of the mice (LC50). The anesthetic index (AI) was then calculated from these minimum concentrations. The data obtained with the compounds of Examples I to XIII are presented in Table 2 along with, for comparison purposes, results obtained from similar testing of 1,2-dihydrohexafluorocyclobutane, the compound of the prior art, a closely related analog, 1,1,2,2-tetrafluorocyclobutane, and another chlorofluoro anesthetic, 1,1,2-trichloro-2,3,3-trifluorocyclobutane.

[2] = Standard test for evaluation of inhalation anesthetics (rotating drum, 10 minutes exposure; AC50, LC50, AI); assay type: in vivo, mice; settings: mouse, in vivo, inhaled or intranasal, calculated from AC50 and LC50, mice; read-out: AI (anesthetic index)
Experimental: as §1

mice [3] = assay: as above; assay type: in vivo; settings: for AC50 (minimum concentration required to anesthetize 50% of the mice) / LC50 (minimum concentration required to kill 50% of the mice): inhalation, 10 minutes exposure in rotating drum, where two percentages are given the actual vapor concentration lies between them
Experimental: as §1

mice [4] = assay: Observation after exposure: survival, delayed death, convulsions; assay type: in vivo
Experimental: as §1
In contrast to these findings, all test mice used in Example I to X were still living one week after exposure.
This compound, which is one of the numerous halogenated cyclobutanes that have been found deleterious, is of particular interest in that its close structural relationship to the 1,2-dihydrohexafluorocyclobutane isomers of the art and to the useful trifluoro (Ex. VII) homolog disclosed above provides a good illustration of the unpredictability in physiological behavior in the field of anesthesia.

[5] = cis- and trans- isomers, values reported by Burns et al; cited from earlier work

| SMILES | Convulsions and death (air-breathing mammals) | Inhalation anesthetic properties (air-breathing mammals) | selectivity ratio at 10 min [2] | AC50 (minimum concentration required to anesthetize 50% of the mice) (mice [3]) | LC50 (minimum concentration required to kill 50% of the mice) (mice [3]) | other results |
| --- | --- | --- | --- | --- | --- | --- |
| FC1(F)C(F)(F)C(F)(Cl)C1(F)Cl (centres unmarked) [1,2-dichlorohexafluoro-] |  |  |  |  |  | Anesthetic properties / toxicity in the prior art [1]: toxic |
| FC1C(F)C(F)(F)C1(F)F (centres unmarked) [1,2-dihydrohexafluoro-, 1,2-dihydrohexafluorocyclobutane] |  |  |  |  |  | Anesthetic properties / toxicity in the prior art [1]: said to possess anesthetic properties |
| FC1(F)CC(Cl)C1(F)Cl (centres unmarked) [1,4-dichloro-1,2,2-trifluorocyclobutane] | not cause convulsions and death | found to possess inhalation anesthetic properties |  |  |  |  |
| FC1(F)CC(Cl)C1(F)Br (centres unmarked) [Example X, 1-bromo-2-chloro-1,4,4-trifluorocyclobutane] | not cause convulsions and death | found to possess inhalation anesthetic properties | ≥ 2.5 | < 0.2 % volume | 0.5 % volume |  |
| FC1(F)CCC1(F)F [Example XII, 1,1,2,2-tetrafluorocyclobutane, reference compound] |  |  | 3 | 4 % volume | 12 % volume | Convulsions (mice [4]; on further observation): proved to be a convulsant on further observation |
| FC1(F)CC(Cl)C1(F)Cl (centres unmarked) [I, b.p. 104°C] |  |  |  | 0.2 % volume | 0.8 % volume | AI (anesthetic index) (mice [3]; calculated from AC50 and LC50, mice, 10 min): 4 |
| FC1(F)CC(Cl)C1(F)Cl (centres unmarked) [I, b.p. 107°C] |  |  | 6 | 0.2 % volume | 1.2 % volume |  |
| FC1CC(F)(F)C1(F)Cl (centres unmarked) [II, 1-chloro-1,2,2,4-tetrafluorocyclobutane] | not cause convulsions and death | found to possess inhalation anesthetic properties | ≥ 6 | 0.5 % volume | 3-3.5 % volume |  |
| FC1(F)CC(F)(Cl)C1(F)Cl (centres unmarked) [III, 1,4-dichloro-1,2,2,4-tetrafluorocyclobutane] | not cause convulsions and death | found to possess inhalation anesthetic properties | ≥ 1 | 0.43-2 % volume | 2-3 % volume |  |
| FC1C(Cl)CC1(F)F (centres unmarked) [IV, 1-chloro-2,3,3-trifluorocyclobutane] | not cause convulsions and death | found to possess inhalation anesthetic properties | ≥ 4 | 0.75-1 % volume | ≥ 4 % volume |  |
| CC1CC(F)(F)C1(F)Br (centres unmarked) [IX, 1-bromo-2-methyl-1,4,4-trifluorocyclobutane] | not cause convulsions and death | found to possess inhalation anesthetic properties | ≥ 1.5 | 0.5-1 % volume | 1.5-1.75 % volume |  |
| FC1(F)CC(F)(Cl)C1(F)F (centres unmarked) [V, 1-chloro-1,2,2,3,3-pentafluorocyclobutane] | not cause convulsions and death | found to possess inhalation anesthetic properties | 5 | 2 % volume | 10 % volume |  |
| FC1CC(F)(F)C1Cl (centres unmarked) [VI, 1-chloro-2,4,4-trifluorocyclobutane] | not cause convulsions and death | found to possess inhalation anesthetic properties | ≥ 2 | < 1 % volume | 2 % volume |  |
| FC1CCC1(F)F (centres unmarked) [VII, 1,2,2-trifluorocyclobutane] | not cause convulsions and death | found to possess inhalation anesthetic properties | ≥ 2 | < 4 % volume | 8 % volume |  |
| FC1(F)CCC1(F)Br (centres unmarked) [VIII, 1-bromo-1,2,2-trifluorocyclobutane] | not cause convulsions and death | found to possess inhalation anesthetic properties | ≥ 7 | < 0.5 % volume | 3.5 % volume |  |
| FC1C(F)C(F)(F)C1(F)F (centres unmarked) [XI, b.p. 26°] |  |  |  |  |  | AC50 (anesthetic concentration) [5]: 10.5 % volume |
| FC1C(F)C(F)(F)C1(F)F (centres unmarked) [XI, b.p. 63°] |  |  |  |  |  | AC50 (anesthetic concentration) [5]: 1.9 % volume |
| FC1(F)CC(Cl)(Cl)C1(F)Cl (centres unmarked) [XIII, 1,1,2-trichloro-2,3,3-trifluorocyclobutane, reference compound] |  |  | 5 | 0.2 % volume | 1 % volume | Delayed death (mice [4]; mice, retested in the manner of Examples I to X, XII and XIII, after apparent recovery from anesthesia): The same "delayed death" phenomenon has been observed |
| C1CC1 [cyclopropane] |  |  |  |  |  | Anesthetic properties / toxicity in the prior art [1]: effective if inflammable anesthetic |
| FC(F)(F)C(Cl)Br (centres unmarked) [halothane, reference compound] |  |  | ~3 |  |  |  |
| FC1(F)C(F)(F)C(F)(F)C1(F)F [octafluoro-] |  |  |  |  |  | Anesthetic properties / toxicity in the prior art [1]: inactive |
